System: NOMO1
Assay: cell viability relative to DMSO control; higher = less cytotoxic
Settings: 48 h
How it was run: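 Library compounds in DMSO were pin-dosed into 1536-well plates (5 μl) holding NOMO1 or SEM (500 cells/well) or P12-Ichikawa (1000 cells/well) leukemia cells, across an 11-point threefold series of 47 μM to 0.79 nM. Each cell line had been adapted for at least four passages in each medium. CellTiter-Glo One luminescence was read after 48 h at 37°C. Viability is the per-plate percentage relative to DMSO wells, with cell-free wells as background.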

[1] = HPLM + 10% dialyzed FBS, 0.000781 µM
[2] = HPLM + 10% dialyzed FBS, 0.00234 µM
[3] = HPLM + 10% dialyzed FBS, 0.00702 µM
[4] = HPLM + 10% dialyzed FBS, 0.0211 µM
[5] = HPLM + 10% dialyzed FBS, 0.0632 µM
[6] = HPLM + 10% dialyzed FBS, 0.19 µM
[7] = HPLM + 10% dialyzed FBS, 0.569 µM
[8] = HPLM + 10% dialyzed FBS, 1.71 µM
[9] = HPLM + 10% dialyzed FBS, 5.12 µM
[10] = HPLM + 10% dialyzed FBS, 15.4 µM
[11] = HPLM + 10% dialyzed FBS, 46.1 µM
[12] = RPMI 5 mM glucose + 10% FBS, 0.000781 µM
[13] = RPMI 5 mM glucose + 10% FBS, 0.00234 µM
[14] = RPMI 5 mM glucose + 10% FBS, 0.00702 µM
[15] = RPMI 5 mM glucose + 10% FBS, 0.0211 µM
[16] = RPMI 5 mM glucose + 10% FBS, 0.0632 µM
[17] = RPMI 5 mM glucose + 10% FBS, 0.19 µM
[18] = RPMI 5 mM glucose + 10% FBS, 0.569 µM
[19] = RPMI 5 mM glucose + 10% FBS, 1.71 µM
[20] = RPMI 5 mM glucose + 10% FBS, 5.12 µM
[21] = RPMI 5 mM glucose + 10% FBS, 15.4 µM
[22] = RPMI 5 mM glucose + 10% FBS, 46.1 µM
[23] = RPMI 5 mM glucose + 10% dialyzed FBS, 0.000781 µM
[24] = RPMI 5 mM glucose + 10% dialyzed FBS, 0.00234 µM
[25] = RPMI 5 mM glucose + 10% dialyzed FBS, 0.00702 µM
[26] = RPMI 5 mM glucose + 10% dialyzed FBS, 0.0211 µM
[27] = RPMI 5 mM glucose + 10% dialyzed FBS, 0.0632 µM
[28] = RPMI 5 mM glucose + 10% dialyzed FBS, 0.19 µM
[29] = RPMI 5 mM glucose + 10% dialyzed FBS, 0.569 µM
[30] = RPMI 5 mM glucose + 10% dialyzed FBS, 1.71 µM
[31] = RPMI 5 mM glucose + 10% dialyzed FBS, 5.12 µM
[32] = RPMI 5 mM glucose + 10% dialyzed FBS, 15.4 µM
[33] = RPMI 5 mM glucose + 10% dialyzed FBS, 46.1 µM

Compound	cell viability [1] [%]	cell viability [2] [%]	cell viability [3] [%]	cell viability [4] [%]	cell viability [5] [%]	cell viability [6] [%]	cell viability [7] [%]	cell viability [8] [%]	cell viability [9] [%]	cell viability [10] [%]	cell viability [11] [%]	cell viability [12] [%]	cell viability [13] [%]	cell viability [14] [%]	cell viability [15] [%]	cell viability [16] [%]	cell viability [17] [%]	cell viability [18] [%]	cell viability [19] [%]	cell viability [20] [%]	cell viability [21] [%]	cell viability [22] [%]	cell viability [23] [%]	cell viability [24] [%]	cell viability [25] [%]	cell viability [26] [%]	cell viability [27] [%]	cell viability [28] [%]	cell viability [29] [%]	cell viability [30] [%]	cell viability [31] [%]	cell viability [32] [%]	cell viability [33] [%]
CCN(CC)CCCC(C)Nc1ccnc2cc(Cl)ccc12 (configuration not stated)	112	100	124	115	120	103	104	69.7	74	31.6	31.5	103	112	99.2	102	117	108	110	92.8	99.7	21.1	18	124	120	118	134	120	121	120	111	107	26.9	26.5
C[C@@H]1CC[C@@]2(CC[C@]3(C)\C(=C/C[C@@H]4[C@@]5(C)C[C@@H](O)[C@H](O)[C@@](C)(CO)[C@@H]5CC[C@@]34C)[C@@H]2[C@H]1C)C(O)=O	120	127	121	109	109	123	123	106	138	120	130	104	99.9	117	107	101	104	110	114	109	119	117	104	119	120	115	122	111	125	108	120	114	120
CC(=O)OCC(=O)[C@@]1(O)CC[C@H]2[C@@H]3CCC/4=C/C(=O)/C=C\[C@]4(C)[C@H]3[C@@H](O)C[C@]12C	–	–	–	–	–	–	–	–	–	–	–	131	119	121	119	114	119	120	112	119	106	115	–	–	–	–	–	–	–	–	–	–	–
CCN1\C=C(C(O)=O)/C(=O)C2=C1C(=C(N3CCNC(C)C3)C(=C2)F)F (configuration not stated)	101	103	114	115	118	121	121	129	128	120	114	114	117	102	115	121	107	122	116	123	116	111	103	112	104	106	118	112	111	122	113	139	98.3
Cc1ccc(C(=O)Nc2ccc([S+](=O)([O-])O)c3cc([S+](=O)([O-])O)cc([S+](=O)([O-])O)c23)cc1NC(=O)c1cccc(NC(=O)Nc2cccc(C(=O)Nc3cc(C(=O)Nc4ccc([S+](=O)([O-])O)c5cc([S+](=O)([O-])O)cc([S+](=O)([O-])O)c45)ccc3C)c2)c1	95.4	93.6	96.9	90.1	91.5	71.9	69.3	73.6	40.8	37.1	38.4	89.4	83.9	107	89.7	90.4	85.9	84.7	90.4	75.6	69	62.2	91.9	91	93.1	101	76.9	85.8	87.6	88.9	76.9	56.3	52.5
Clc1ccc(C(c2ccccc2Cl)C(Cl)Cl)cc1 (configuration not stated)	137	124	123	122	120	107	116	122	114	99.8	101	105	115	126	118	137	134	120	119	110	98.2	93.2	106	115	129	106	111	109	97.1	120	101	95	99.4
Nc1ncnc2nc(-c3ccc(N4CCOCC4)nc3)cc(-c3cccc(Br)c3)c12	–	–	–	–	–	–	–	–	–	–	–	108	107	116	121	111	118	122	115	114	106	107	108	127	121	111	106	120	110	117	116	106	120
CN1CCN(CC1)C2=CC3=C([NH]C(=N3)C/4=C(\N)C5=C(F)C=CC=C5NC4=O)C=C2	104	99.7	98.5	97.4	96.3	102	97.2	93.9	60.8	49.7	51.1	101	107	96.7	107	111	109	107	104	87.9	68.3	58.6	92.1	99.9	115	96.1	99	102	100	92.3	79.7	63.1	53.4
COc1cc(C[C@@H](CO)[C@H](CO)Cc2ccc(O)c(OC)c2)ccc1O	97.7	99.3	97.2	123	112	122	126	108	107	101	104	107	118	101	111	103	108	106	97.2	104	94.4	102	95.8	111	113	107	118	110	107	107	104	103	112
Clc1ccc(C(c2ccc(Cl)cc2)[n+]2ccn(CC(OCc3ccc(Cl)cc3Cl)c3ccc(Cl)cc3Cl)c2)cc1 (configuration not stated)	108	99	113	110	107	107	115	102	101	81.2	3.86	94.6	100	105	94.7	119	113	91	103	102	74.3	3.56	105	105	118	114	112	107	98.5	91.3	90.4	83	2.5
O=C(O)c1cccc(-c2noc(-c3ccccc3F)n2)c1	106	111	100	133	112	121	109	107	110	96.8	101	86.3	90.6	106	103	86.2	98	99.6	94.7	94.2	91.9	89.9	93.2	101	101	95.2	96.6	98.9	112	95.8	103	87.8	81.3
O=C1c2ccccc2-c2n[nH]c3cccc1c23	109	131	103	111	123	120	92.5	122	102	53.6	28.3	90.6	105	110	113	102	127	113	107	117	53.7	18.2	101	107	98.3	114	116	115	120	108	94.2	94.9	23.9
COC(=O)CCC1=C(C)C2=CC3=NC(=CC4=C(C)C(=C([NH]4)C=C\5N=C(C=C1[NH]2)\C(=C5C)CCC(O)=O)C=C)\C6=C\C=C(/[C@@H](C(=O)OC)[C@@]36C)C(=O)OC	95.4	94.3	91.5	91.9	92.6	97	103	80.3	78.6	38.9	14.1	86.6	89.3	91.9	97.5	116	109	101	102	101	55.2	14.5	85.4	99	87	98.4	88	90.8	93.7	86.6	94.9	45.7	18.4
c1ccc2c(CN3CCNCC3)cccc2c1	99.6	113	124	106	112	121	113	112	104	99.7	93.7	103	124	115	117	117	126	115	133	110	99.9	51.6	108	113	106	117	115	122	129	122	116	91.7	64.9
CC1(C)[C@@H](O)CC[C@@]2(C)[C@H]1CC[C@]3(C)[C@@H]2C(=O)\C=C/4[C@@H]5C[C@](C)(CC[C@]5(C)CC[C@@]34C)C(O)=O	102	113	120	127	116	113	118	118	116	124	112	110	99.1	110	116	95.7	103	102	95	98.1	93.9	86.8	104	108	117	115	115	103	116	117	92	97.7	97.9
